Reference: patent US20230181601A1, “TREATMENT OF NON-ALCOHOLIC STEATOHEPATITIS (NASH)” (DURECT CORPORATION, priority 2020, published 2023)

Columns and labels:
[1] = Plasma pharmacokinetics of radioactivity after single intravenous dose; format: in vivo, male Sprague Dawley rats; details: 10 mg/kg single intravenous (bolus)
Description: (§1) The objectives of this study were to determine the plasma pharmacokinetics of [4-^14C]-25HC3S-derived radioactivity in male Sprague Dawley rats, determine the routes of elimination and excretion mass balance of [4-^14C]-25HC3S-derived radioactivity in male Sprague Dawley rats, determine the tissue distribution and tissue pharmacokinetics of [4-^14C]-25HC3S-derived radioactivity using quantitative whole body autoradiography methods in male Sprague Dawley and Long Evans rats following a single intravenous (bolus) dose, and to provide plasma, urine, and fecal homogenate samples for metabolite profiling of [4-^14C]-25HC3S-derived radioactivity.
(§2) Nine male Sprague Dawley rats (Group 1) were designated for the pharmacokinetic phase, 3 male Sprague Dawley rats (Group 2) for the excretion mass balance phase, and 7 male Sprague Dawley rats (Group 3) and 9 male Long Evans rats (Group 4) for the tissue distribution phase. All animals received a single intravenous dose of [^14C]-25HC3S at 10 mg/kg and a target radioactivity of 225 μCi/kg. Blood samples were collected from all Group 1 animals at approximately 0.083, 0.25, 0.5, 1, 2, 4, 8, 12, 24, 48, and 72 hours post-dose. Urine and feces were collected from all Group 2 animals periodically through 168 hours post-dose. […] Following blood collection, animals were euthanized by CO2 inhalation and carcasses frozen in a dry ice/hexane bath for processing by quantitative whole body autoradiography. Whole blood, plasma, urine, feces, cage rinse, and cage wash were analyzed for total radioactivity by liquid scintillation counting.

[2] = Excretion mass balance after single intravenous dose; format: in vivo, male Sprague Dawley rats; details: 10 mg/kg intravenous, over 168 hours
Description: as §1
as §2, with “μCi/kg.” for “μCi/kg. Blood samples were collected from all Group 1 animals at approximately 0.083, 0.25, 0.5, 1, 2, 4, 8, 12, 24, 48, and 72 hours post-dose. Urine and feces were collected from all Group 2 animals periodically through 168 hours post-dose.”

[3] = Tissue distribution by quantitative whole body autoradiography after single intravenous dose; format: in vivo, male Sprague Dawley rats; details: 10 mg/kg intravenous
Description: as §1, §2

[4] = Tissue distribution by quantitative whole body autoradiography after single intravenous dose, pigmented rats; format: in vivo, male Long Evans rats; details: 10 mg/kg intravenous
Description: as §1
as §2, with “μCi/kg.” for “μCi/kg. Blood samples were collected from all Group 1 animals at approximately 0.083, 0.25, 0.5, 1, 2, 4, 8, 12, 24, 48, and 72 hours post-dose. Urine and feces were collected from all Group 2 animals periodically through 168 hours post-dose.”

[5] = Plasma pharmacokinetics of radioactivity after single oral (gavage) dose; format: in vivo, rats; details: 75 mg/kg single oral (gavage)
[6] = Excretion mass balance after single oral (gavage) dose; format: in vivo, rats; details: 75 mg/kg single oral (gavage)
[7] = Tissue distribution by quantitative whole body autoradiography after single oral (gavage) dose; format: in vivo, male Sprague Dawley rats; details: 75 mg/kg oral
[8] = Metabolite profiling of plasma, urine and feces after intravenous dose; format: in vivo, male Sprague Dawley rats; details: intravenous 10 mg/kg
Method: as §2

[9] = Metabolite profiling of plasma and feces after oral dose; format: in vivo, rats; details: 75 mg/kg oral
Description: Radiolabeled components in plasma and feces extracts were profiled and identified using radio-high performance liquid chromatography (HPLC) and high performance liquid chromatography/mass spectrometry (HPLC/MS) methods.

[10] = Single oral dose safety and pharmacokinetic study in NASH and healthy subjects; format: in vivo, human
Method: The present Example was a randomized, dose ranging, single dose safety and pharmacokinetic study of 25HC3S administered to subjects with NASH and control healthy subjects. […] For each cohort, 10 subjects with NASH were enrolled which were further classified into cirrhotic and non-cirrhotic. Each subject received only one dose of study treatment. The second cohort was dosed after a review of safety and tolerability data from Cohort 1.

[11] = 50 mg single oral dose, Healthy, Geometric Mean
[12] = 50 mg single oral dose, Healthy, Mean
[13] = 50 mg single oral dose, NASH, Geometric Mean
[14] = 50 mg single oral dose, NASH, Mean
[15] = 200 mg single oral dose, Healthy, Geometric Mean
[16] = 200 mg single oral dose, Healthy, Mean
[17] = 200 mg single oral dose, NASH, Geometric Mean
[18] = 200 mg single oral dose, NASH, Mean

Molecule: C[C@H](CCCC(C)(C)O)[C@H]1CC[C@H]2[C@@H]3CC=C4[14CH2][C@@H](OS(=O)(=O)O)CC[C@]4(C)[C@H]3CC[C@]12C [[4-^14C]-25HC3S]
- terminal elimination phase T1/2 ([1]; plasma, PK phase): 26.6 h
- mean plasma C0 ([1]; total radioactivity): 25,900 ng-equiv./g
- plasma AUClast ([1]; total radioactivity): 27,900 h*ng-equiv./g
- dose recovered in urine, feces, and cage rinse [2]: approximately 100.2%
- recovered radioactivity in feces [2]: 83.0%
- plasma:whole blood AUClast ratio [3]: 0.79
- tissue distribution by QWBA [3]: broadly distributed and detected by quantitative whole body autoradiography in all tissues except the eye (lens)
- whole blood AUClast ([3]; Group 3): 25,200 h*ng-equiv./g
- T1/2 in plasma ([3]; QWBA phase): 44.3 h
- T1/2 in whole blood ([3]; QWBA phase): 52.2 h
- maximum plasma concentration ([3]; QWBA phase): 12,400 ng-equiv./g
- tissue:plasma ratio, liver ([3]; calculated using AUClast): 11.4
- tissue:plasma ratio, small intestine (wall) ([3]; calculated using AUClast): 7.44
- AUClast in liver ([3]; radioactivity): ≤ 364,000 hng/g
- binding to pigmented or non-pigmented skin or the uveal tract [4]: no difference
- plasma or whole blood concentrations versus Sprague Dawley rats ([4]; first 168 hours postdose): no substantial difference

Molecule: C[C@H](CCCC(C)(C)O)[C@H]1CC[C@H]2[C@@H]3CC=C4CC(OS(=O)(=O)O)CC[C@]4(C)[C@H]3CC[C@]12C (stereo partly shown) [[^14C]-25HC3S]
- terminal elimination phase T1/2 [5]: 27.3 h
- plasma AUClast ([5]; radioactivity): 96,400 h.ng equiv./g
- dose recovered in urine, feces, and cage rinse [6]: approximately 94.5%
- recovered radioactivity in feces [6]: 94.2%
- plasma:whole blood AUClast ratio [7]: 1.12
- skin, thymus, prostate, and pituitary tissue concentrations [7]: < 3000 ng equiv./g
- tissue Tmax [7]: ≤ 6 h
- tissue distribution by QWBA [7]: broadly distributed and detected by quantitative whole body autoradiography in all tissues except the eye (lens)
- uveal tract and brain concentrations [7]: approximately 1000 ng equiv./g
- whole blood AUClast [7]: 127,000 h.ng equiv./g
- tissue:plasma ratio, adrenal gland ([7]; calculated using AUClast): 6.64
- tissue:plasma ratio, liver ([7]; calculated using AUClast): 6.96
- tissue:plasma ratio, small intestine (wall) ([7]; calculated using AUClast): 15.4

Molecule: desmosterol sulfate
- detection in plasma, urine, or feces samples [8]: Neither desmosterol sulfate nor 25-hydroxycholesterol was detected
- detection in plasma or feces samples [9]: not found

Molecule: C[C@H](CCCC(C)(C)O)[C@H]1CC[C@H]2[C@@H]3CC=C4C[C@@H](O)CC[C@]4(C)[C@H]3CC[C@]12C [M29, 25-hydroxycholesterol]
- detection in plasma, urine, or feces samples [8]: Neither desmosterol sulfate nor 25-hydroxycholesterol was detected
- relative observed intensity (ROI) in plasma ([9]; 2 hour postdose plasma): 37%
- % of total dose in feces ([9]; pools 0 to 168 hours post-dose): 1.9 % of total dose
- concentration at 2 h ([9]; Sprague Dawley, rat, 2 hour postdose plasma): 1230 ng/g

Molecule: C[C@H](CCCC(C)(C)O)[C@H]1CC[C@H]2[C@@H]3CC=C4C[C@@H](OS(=O)(=O)[O-])CC[C@]4(C)[C@H]3CC[C@]12C.[Na+] [25HC3S sodium]
- AUC0-12 [10, 11]: 496.7 ng·h/mL
- AUC0-last [10, 11]: 450.0 ng·h/mL
- AUCinf [10, 11]: 423.3 ng·h/mL
- CL/F [10, 11]: 118.11 L/h
- Cmax [10, 11]: 90.946 ng/mL
- T1/2 [10, 11]: 1.889 h
- Tmax [10, 11]: 2.834 h
- AUC0-12 [10, 12]: 528.0 ng·h/mL
- AUC0-last [10, 12]: 477.1 ng·h/mL
- AUCinf [10, 12]: 438.6 ng·h/mL
- CL/F [10, 12]: 122.35 L/h
- Cmax [10, 12]: 93.967 ng/mL
- T1/2 [10, 12]: 1.906 h
- Tmax [10, 12]: 3.008 h
- AUC0-12 [10, 13]: 597.8 ng·h/mL
- AUC0-last [10, 13]: 476.1 ng·h/mL
- AUCinf [10, 13]: 608.3 ng·h/mL
- CL/F [10, 13]: 82.19 L/h
- Cmax [10, 13]: 107.627 ng/mL
- T1/2 [10, 13]: 1.670 h
- Tmax [10, 13]: 2.305 h
- AUC0-12 [10, 14]: 623.1 ng·h/mL
- AUC0-last [10, 14]: 513.3 ng·h/mL
- AUCinf [10, 14]: 636.1 ng·h/mL
- CL/F [10, 14]: 85.29 L/h
- Cmax [10, 14]: 113.170 ng/mL
- T1/2 [10, 14]: 1.674 h
- Tmax [10, 14]: 2.408 h
- AUC0-12 [10, 15]: 1162.8 ng·h/mL
- AUC0-last [10, 15]: 1172.5 ng·h/mL
- AUCinf [10, 15]: 1181.2 ng·h/mL
- CL/F [10, 15]: 169.32 L/h
- Cmax [10, 15]: 255.698 ng/mL
- T1/2 [10, 15]: 1.719 h
- Tmax [10, 15]: 2.528 h
- AUC0-12 [10, 16]: 1175.9 ng·h/mL
- AUC0-last [10, 16]: 1185.7 ng·h/mL
- AUCinf [10, 16]: 1194.3 ng·h/mL
- CL/F [10, 16]: 171.25 L/h
- Cmax [10, 16]: 260.500 ng/mL
- T1/2 [10, 16]: 1.753 h
- Tmax [10, 16]: 2.673 h
- AUC0-12 [10, 17]: 1495.2 ng·h/mL
- AUC0-last [10, 17]: 1539.2 ng·h/mL
- AUCinf [10, 17]: 1411.8 ng·h/mL
- CL/F [10, 17]: 141.66 L/h
- Cmax [10, 17]: 318.582 ng/mL
- T1/2 [10, 17]: 2.196 h
- Tmax [10, 17]: 2.647 h
- AUC0-12 [10, 18]: 1541.0 ng·h/mL
- AUC0-last [10, 18]: 1581.6 ng·h/mL
- AUCinf [10, 18]: 1428.5 ng·h/mL
- CL/F [10, 18]: 143.19 L/h
- Cmax [10, 18]: 332.700 ng/mL
- T1/2 [10, 18]: 2.511 h
- Tmax [10, 18]: 2.906 h
